We go through 27 compounds from US9951077B2, “Aminopyridazinone compounds as protein kinase inhibitors” (ETERNITY BIOSCIENCE INC., priority 2014, dated 2018).

As a reminder, the IC50 is the concentration that gives 50% inhibition.

Sequence of Btk (Q06187 whole entry): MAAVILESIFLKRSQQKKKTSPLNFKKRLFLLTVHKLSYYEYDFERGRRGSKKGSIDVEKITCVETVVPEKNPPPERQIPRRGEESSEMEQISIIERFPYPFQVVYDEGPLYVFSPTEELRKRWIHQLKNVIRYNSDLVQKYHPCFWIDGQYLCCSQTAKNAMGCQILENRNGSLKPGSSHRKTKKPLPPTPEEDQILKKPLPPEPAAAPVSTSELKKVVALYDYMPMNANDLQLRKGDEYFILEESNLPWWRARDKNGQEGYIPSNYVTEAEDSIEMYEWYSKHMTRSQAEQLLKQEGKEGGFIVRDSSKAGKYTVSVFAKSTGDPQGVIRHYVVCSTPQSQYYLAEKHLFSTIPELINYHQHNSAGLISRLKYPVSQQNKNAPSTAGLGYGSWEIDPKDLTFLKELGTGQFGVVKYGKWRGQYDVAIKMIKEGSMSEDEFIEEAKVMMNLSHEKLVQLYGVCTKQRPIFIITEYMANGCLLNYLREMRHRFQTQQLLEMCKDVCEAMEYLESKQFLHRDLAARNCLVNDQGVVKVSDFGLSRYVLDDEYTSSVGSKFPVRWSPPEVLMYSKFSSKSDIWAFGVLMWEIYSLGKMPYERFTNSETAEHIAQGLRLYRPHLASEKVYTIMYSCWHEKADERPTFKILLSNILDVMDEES

The target of this experiment is Btk (Homo sapiens (Human), UniProt Q06187). Kind of experiment: Btk kinase assay (ADP-Glo). The experiment is classed as biochemical. The following applies: ATP 1.2 μM, 60 minutes, room temperature; read-out: BTK enzyme IC50. How it is done:
The Btk kinase assay was performed using a ADP-Glo Btk kinase assay kit purchased from Promega (Madison, Wis.). The assay was conducted according to the protocols provided in the assay kit. In brief, the enzyme reaction was carried out in the kinase reaction buffer containing Btk (2 ng/μl), ATP (1.2 μM), poly GT peptide (0.3 μM), DTT (40 nM), MnCl2 (1.4 mM), and 1×kinase buffer (included in the kit) in the presence or absence of the tested articles at various concentrations in 384-well plate at room temperature (22±1° C.) for 60 minutes. The final reaction volume for each reaction was 10 μl. Then, 4 μl of ADP-Glo reagent (included in the kit) was added into the reaction and the plate was further incubated for another 40 minutes to terminate the reaction and deplete the remaining ATP. Finally, 10 μl of the kinase detection reagent was added into each reaction to simultaneously convert ADP to ATP and allow the newly synthesized ATP to be measured by a plate-reading luminometer (Victor X5 2030 multilabel reader, PerkinElmer). IC50 value was calculated using appropriate programs in GraphPad Prism by plotting the logarithm of the concentration versus percent inhibition as compared with a vehicle (DMSO) control.
On the technique in general: ADP-Glo turns the ADP formed in a reaction into a luminescent signal.
`CN(C/C=C/C(=O)N1CCC[C@@H](n2cc(-c3ccc(Oc4ccccc4)cc3)c3c(N)n[nH]c(=O)c32)C1)C1CCC1` [Example 31, 4-amino-1-[(3R)-1-[(E)-4-[cyclobutyl(methyl)amino]but-2-enoyl]-3-piperidyl]-3-(4-phenoxyphenyl)-6H-pyrrolo[2,3-d]pyridazin-7-one]: the half-inhibitory concentration (IC50) was no more than 10 nM.

With `Nc1n[nH]c(=O)c2c1c(-c1ccc(Oc3ccccc3)cc1)cn2[C@@H]1CCCN(C(=O)/C=C/CN2CCC2)C1` [Example 33, 4-amino-1-[(3R)-1-[(E)-4-(azetidin-1-yl)but-2-enoyl]-3-piperidyl]-3-(4-phenoxyphenyl)-6H-pyrrolo[2,3-d]pyridazin-7-one], the IC50 was no more than 10 nM. Next, `Nc1n[nH]c(=O)c2c1c(-c1ccc(Oc3ccccc3)cc1)cn2[C@@H]1CCCN(C(=O)/C=C/CN2CCCC2)C1` [Example 34, 4-amino-3-(4-phenoxyphenyl)-1-[(3R)-1-[(E)-4-pyrrolidin-1-ylbut-2-enoyl]-3-piperidyl]-6H-pyrrolo[2,3-d]pyridazin-7-one]: no more than 10 nM. To `Nc1n[nH]c(=O)c2c1c(-c1ccc(Oc3ccccc3)cc1)cn2[C@@H]1CCCN(C(=O)/C=C/CN2CCOCC2)C1` [Example 35, 4-amino-1-[(3R)-1-[(E)-4-morpholinobut-2-enoyl]-3-piperidyl]-3-(4-phenoxyphenyl)-6H-pyrrolo[2,3-d]pyridazin-7-one] belongs no more than 10 nM. Next, `COC/C=C/C(=O)N1CCC[C@@H](n2cc(-c3ccc(Oc4ccccc4)cc3)c3c(N)n[nH]c(=O)c32)C1` [Example 37, 4-amino-1-[(3R)-1-[(E)-4-methoxybut-2-enoyl]-3-piperidyl]-3-(4-phenoxyphenyl)-6H-pyrrolo[2,3-d]pyridazin-7-one]: 1000 to 100000 nM. As for `CN(C)C/C=C/C(=O)N1CCCC(n2cc(-c3ccc(Oc4ccccc4)cc3)c3c(N)n[nH]c(=O)c32)C1` (stereo not drawn) [Example 38, 4-amino-1-[1-[(E)-4-(dimethylamino)but-2-enoyl]-3-piperidyl]-3-(4-phenoxyphenyl)-6H-pyrrolo[2,3-d]pyridazin-7-one], the IC50 was no more than 10 nM. In the case of `CN(C)C/C=C/C(=O)N1CC[C@@H](n2cc(-c3ccc(Oc4ccccc4)cc3)c3c(N)n[nH]c(=O)c32)C1` [Example 39, 4-amino-1-[(3R)-1-[(E)-4-(dimethylamino)but-2-enoyl]pyrrolidin-3-yl]-3-(4-phenoxyphenyl)-6H-pyrrolo[2,3-d]pyridazin-7-one], the IC50 is no more than 10 nM. Take `CN(C)C/C=C/C(=O)N1CC(n2cc(-c3ccc(Oc4ccccc4)cc3)c3c(N)n[nH]c(=O)c32)C1` [Example 40, 4-amino-1-[1-[(E)-4-(dimethylamino)but-2-enoyl]azetidin-3-yl]-3-(4-phenoxyphenyl)-6H-pyrrolo[2,3-d]pyridazin-7-one]: the IC50 lay within 10 to 1000 nM.

`CN(C)C/C=C/C(=O)N1CCC[C@H]1Cn1cc(-c2ccc(Oc3ccccc3)cc2)c2c(N)n[nH]c(=O)c21` [Example 41, 4-amino-1-[[(2S)-1-[(E)-4-(dimethylamino)but-2-enoyl]pyrrolidin-2-yl]methyl]-3-(4-phenoxyphenyl)-6H-pyrrolo[2,3-d]pyridazin-7-one]: the IC50 was in the range of 10 to 1000 nM. To `CN(C)C/C=C/C(=O)N1CCC[C@@H]1Cn1cc(-c2ccc(Oc3ccccc3)cc2)c2c(N)n[nH]c(=O)c21` [Example 42, 4-amino-1-[[(2R)-1-[(E)-4-(dimethylamino)but-2-enoyl]pyrrolidin-2-yl]methyl]-3-(4-phenoxyphenyl)-6H-pyrrolo[2,3-d]pyridazin-7-one] belongs 1000 to 100000 nM.

For the compound `CN(C)C/C=C/C(=O)N1CCC(Cn2cc(-c3ccc(Oc4ccccc4)cc3)c3c(N)n[nH]c(=O)c32)C1` (stereo not drawn) [Example 43, 4-amino-1-[[1-[(E)-4-(dimethylamino)but-2-enoyl]pyrrolidin-3-yl]methyl]-3-(4-phenoxyphenyl)-6H-pyrrolo[2,3-d]pyridazin-7-one], the IC50 was 10 to 1000 nM.

As to `CN(C)C/C=C/C(=O)N1CCC(n2cc(-c3ccc(Oc4ccccc4)cc3)c3c(N)n[nH]c(=O)c32)CC1` [Example 44, 4-amino-1-[1-[(E)-4-(dimethylamino)but-2-enoyl]-4-piperidyl]-3-(4-phenoxyphenyl)-6H-pyrrolo[2,3-d]pyridazin-7-one], the IC50 was in the range of 10 to 1000 nM. Next, `CN(C)C/C=C/C(=O)N1C[C@H](n2cc(-c3ccc(Oc4ccccc4)cc3)c3c(N)n[nH]c(=O)c32)CC(F)(F)C1` [Example 49, 4-amino-1-[(3R)-1-[(E)-4-(dimethylamino)but-2-enoyl]-5,5-difluoro-3-piperidyl]-3-(4-phenoxyphenyl)-6H-pyrrolo[2,3-d]pyridazin-7-one]: 10 to 1000 nM; `N#C/C(=C\C1CC1)C(=O)N1CCC[C@@H](n2cc(-c3ccc(Oc4ccccc4)cc3)c3c(N)n[nH]c(=O)c32)C1` [Example 50, (E)-2-[(3R)-3-[4-amino-7-oxo-3-(4-phenoxyphenyl)-6H-pyrrolo[2,3-d]pyridazin-1-yl]piperidine-1-carbonyl]-3-cyclopropyl-prop-2-enenitrile]: 10 to 1000 nM; `C=CC(=O)N1CCCC(n2cc(-c3ccc(OC)cc3)c3c(N)n[nH]c(=O)c32)C1` (stereo not drawn) [Example 51, 1-(1-acryloylpiperidin-3-yl)-4-amino-3-(4-methoxyphenyl)-1H-pyrrolo[2,3-d]pyridazin-7(6H)-one]: no more than 10 nM. To `COc1ccc(-c2cn(C3CCCN(C(=O)/C=C/CN(C)C)C3)c3c(=O)[nH]nc(N)c23)cc1` (stereo not drawn) [Example 52, 4-amino-1-[1-[(E)-4-(dimethylamino)but-2-enoyl]-3-piperidyl]-3-(4-methoxyphenyl)-6H-pyrrolo[2,3-d]pyridazin-7-one] belongs no more than 10 nM. Next, `C=CC(=O)N1CCCC(n2cc(-c3ccc(OC)c(Cl)c3)c3c(N)n[nH]c(=O)c32)C1` (stereo not drawn) [Example 53, 1-(1-acryloylpiperidin-3-yl)-4-amino-3-(3-chloro-4-methoxyphenyl)-1H-pyrrolo[2,3-d]pyridazin-7(6H)-one]: no more than 10 nM; `COc1ccc(-c2cn(C3CCCN(C(=O)/C=C/CN(C)C)C3)c3c(=O)[nH]nc(N)c23)cc1Cl` (stereo not drawn) [Example 54, 4-amino-3-(3-chloro-4-methoxy-phenyl)-1-[1-[(E)-4-(dimethylamino)but-2-enoyl]-3-piperidyl]-6H-pyrrolo[2,3-d]pyridazin-7-one]: no more than 10 nM. As for `C=CC(=O)N1CCCC(n2cc(-c3ccc(Oc4ccccc4F)cc3)c3c(N)n[nH]c(=O)c32)C1` (stereo not drawn) [Example 55, 1-(1-acryloylpiperidin-3-yl)-4-amino-3-(4-(2-fluorophenoxy)phenyl)-1H-pyrrolo[2,3-d]pyridazin-7(6H)-one], the IC50 is no more than 10 nM. To `C=CC(=O)N1CCC[C@@H](n2cc(-c3ccc(Oc4ccccc4F)cc3)c3c(N)n[nH]c(=O)c32)C1` [Example 56, (R)-1-(1-acryloylpiperidin-3-yl)-4-amino-3-(4-(2-fluorophenoxy)phenyl)-1H-pyrrolo[2,3-d]pyridazin-7(6H)-one] belongs no more than 10 nM; to `CN(C)C/C=C/C(=O)N1CCC[C@@H](n2cc(-c3ccc(Oc4ccccc4F)cc3)c3c(N)n[nH]c(=O)c32)C1` [Example 57, 4-amino-1-[(3R)-1-[(E)-4-(dimethylamino)but-2-enoyl]-3-piperidyl]-3-[4-(2-fluorophenoxy)phenyl]-6H-pyrrolo[2,3-d]pyridazin-7-one], no more than 10 nM. Consider `CN(C)C/C=C/C(=O)N1CCC[C@@H](n2cc(-c3ccc(Oc4c(F)cccc4F)cc3)c3c(N)n[nH]c(=O)c32)C1` [Example 59, 4-amino-3-[4-(2,6-difluorophenoxy)phenyl]-1-[(3R)-1-[(E)-4-(dimethylamino)but-2-enoyl]-3-piperidyl]-6H-pyrrolo[2,3-d]pyridazin-7-one], for which the IC50 was in the range of 10 to 1000 nM.

Consider `C=CC(=O)N1CCCC(n2cc(-c3ccc(Oc4ccc(F)cc4)cc3)c3c(N)n[nH]c(=O)c32)C1` (stereo not drawn) [Example 60, 1-(1-acryloylpiperidin-3-yl)-4-amino-3-(4-(4-fluorophenoxy)phenyl)-1H-pyrrolo[2,3-d]pyridazin-7(6H)-one], for which the IC50 is 10 to 1000 nM.

As to `CN(C)C/C=C/C(=O)N1CCCC(n2cc(-c3ccc(Oc4ccc(F)cc4)cc3)c3c(N)n[nH]c(=O)c32)C1` (stereo not drawn) [Example 61, 4-amino-1-[1-[(E)-4-(dimethylamino)but-2-enoyl]-3-piperidyl]-3-[4-(4-fluorophenoxy)phenyl]-6H-pyrrolo[2,3-d]pyridazin-7-one], the IC50 lay within 10 to 1000 nM. For `C=CC(=O)N1CCCC(n2cc(-c3ccc(Oc4cccc(F)c4)cc3)c3c(N)n[nH]c(=O)c32)C1` (stereo not drawn) [Example 62, 1-(1-acryloylpiperidin-3-yl)-4-amino-3-(4-(3-fluorophenoxy)phenyl)-1H-pyrrolo[2,3-d]pyridazin-7(6H)-one], the IC50 lay in the range of 10 to 1000 nM. Next, `CN(C)C/C=C/C(=O)N1CCCC(n2cc(-c3ccc(Oc4cccc(F)c4)cc3)c3c(N)n[nH]c(=O)c32)C1` (stereo not drawn) [Example 63, 4-amino-1-[1-[(E)-4-(dimethylamino)but-2-enoyl]-3-piperidyl]-3-[4-(3-fluorophenoxy)phenyl]-6H-pyrrolo[2,3-d]pyridazin-7-one]: no more than 10 nM; `C=CC(=O)N1CCCC(n2cc(-c3ccc(Oc4ccc(Cl)cc4)cc3)c3c(N)n[nH]c(=O)c32)C1` (stereo not drawn) [Example 64, 1-(1-acryloylpiperidin-3-yl)-4-amino-3-(4-(4-chlorophenoxy)phenyl)-1H-pyrrolo[2,3-d]pyridazin-7(6H)-one]: 10 to 1000 nM.
